Experimental data as given in ChEMBL document CHEMBL1255262, “Antimicrobial activity of omiganan pentahydrochloride against contemporary fungal pathogens responsible for catheter-associated infections” (2008).
In brackets after ≈: the same amount, converted by molar mass.

How the values were obtained:
Type in all cases: functional
Candida tropicalis [1] = assay: Antifungal activity against Candida tropicalis after 48 hrs by broth microdilution
Curvularia = assay: Antifungal activity against Curvularia species after 48 hrs by broth microdilution
Paecilomyces variotii = assay: Antifungal activity against Paecilomyces variotii after 48 hrs by broth microdilution
Fusarium sp. = assay: Antifungal activity against Fusarium sp. after 48 hrs by broth microdilution
Penicillium sp. = assay: Antifungal activity against Penicillium sp. after 48 hrs by broth microdilution
Nakaseomyces glabratus [2] = assay: Antifungal activity against Candida glabrata after 48 hrs by broth microdilution
Talaromyces marneffei = assay: Antifungal activity against Penicillium marneffei after 48 hrs by broth microdilution
Pichia kudriavzevii [3] = assay: Antifungal activity against Candida krusei after 48 hrs by broth microdilution
Candida albicans [4] = assay: Antifungal activity against Candida albicans after 48 hrs by broth microdilution
Aspergillus sp. = assay: Antifungal activity against Aspergillus sp. after 48 hrs by broth microdilution
Candida parapsilosis [5] = assay: Antifungal activity against Candida parapsilosis after 48 hrs by broth microdilution; details: Lodderomyces parapsilosis
Candida parapsilosis [6] = assay: Antifungal activity against Candida parapsilosis assessed as resistant isolates after 48 hrs by broth microdilution
Nakaseomyces glabratus [7] = assay: Antifungal activity against Candida glabrata assessed as resistant isolates after 48 hrs by broth microdilution
Nakaseomyces glabratus [8] = assay: Antifungal activity against Candida glabrata assessed as susceptible isolates after 48 hrs by broth microdilution
Candida tropicalis [9] = assay: Antifungal activity against Candida tropicalis assessed as resistant isolates after 48 hrs by broth microdilution
Candida tropicalis [10] = assay: Antifungal activity against Candida tropicalis assessed as susceptible isolates after 48 hrs by broth microdilution
Pichia kudriavzevii [11] = assay: Antifungal activity against Candida krusei assessed as resistant isolates after 48 hrs by broth microdilution
Pichia kudriavzevii [12] = assay: Antifungal activity against Candida krusei assessed as susceptible isolates after 48 hrs by broth microdilution
Candida parapsilosis [13] = assay: Antifungal activity against Candida parapsilosis assessed as susceptible isolates after 48 hrs by broth microdilution
Candida albicans [14] = assay: Antifungal activity against Candida albicans assessed as resistant isolates after 48 hrs by broth microdilution
Candida albicans [15] = assay: Antifungal activity against Candida albicans assessed as susceptible isolates after 48 hrs by broth microdilution

| SMILES | MIC50 (Candida tropicalis [1]) | MIC90 (Candida tropicalis [1]) | MIC50 (Curvularia) | MIC90 (Curvularia) | MIC50 (Paecilomyces variotii) | MIC90 (Paecilomyces variotii) | MIC50 (Fusarium sp.) | MIC90 (Fusarium sp.) | MIC50 (Penicillium sp.) | MIC90 (Penicillium sp.) | MIC50 (Nakaseomyces glabratus [2]) | MIC90 (Nakaseomyces glabratus [2]) | MIC50 (Talaromyces marneffei) | MIC90 (Talaromyces marneffei) | MIC50 (Pichia kudriavzevii [3]) | MIC90 (Pichia kudriavzevii [3]) | MIC50 (Candida albicans [4]) | MIC90 (Candida albicans [4]) | MIC50 (Aspergillus sp.) | MIC90 (Aspergillus sp.) | also measured |
| --- | --- | --- | --- | --- | --- | --- | --- | --- | --- | --- | --- | --- | --- | --- | --- | --- | --- | --- | --- | --- | --- |
| C[C@@H]1[C@H](O)[C@@H](C)/C=C/C=C/C=C/C=C/C=C/C=C/C=C/[C@H](O[C@@H]2O[C@H](C)[C@@H](O)[C@H](N)[C@@H]2O)C[C@@H]2O[C@](O)(C[C@@H](O)C[C@@H](O)[C@H](O)CC[C@@H](O)C[C@@H](O)CC(=O)O[C@H]1C)C[C@H](O)[C@H]2C(=O)O [AMPHOTERICIN B] | 1 µg/mL (≈ 1.08 µM) | 1 µg/mL (≈ 1.08 µM) | 0.25 µg/mL (≈ 0.271 µM) | 0.5 µg/mL (≈ 0.541 µM) | 0.25 µg/mL (≈ 0.271 µM) | 0.5 µg/mL (≈ 0.541 µM) | 0.25 µg/mL (≈ 0.271 µM) | 0.5 µg/mL (≈ 0.541 µM) | 0.25 µg/mL (≈ 0.271 µM) | 0.5 µg/mL (≈ 0.541 µM) | 1 µg/mL (≈ 1.08 µM) | 1 µg/mL (≈ 1.08 µM) | 0.25 µg/mL (≈ 0.271 µM) | 0.5 µg/mL (≈ 0.541 µM) | 1 µg/mL (≈ 1.08 µM) | 2 µg/mL (≈ 2.16 µM) | 1 µg/mL (≈ 1.08 µM) | 1 µg/mL (≈ 1.08 µM) | 0.5 µg/mL (≈ 0.541 µM) | 1 µg/mL (≈ 1.08 µM) | MIC (Candida parapsilosis [5]): 1 µg/mL (≈ 1.08 µM); MIC50 (Candida parapsilosis [5]): 1 µg/mL (≈ 1.08 µM); MIC90 (Candida parapsilosis [5]): 1 µg/mL (≈ 1.08 µM) |
| OC(Cn1cncn1)(Cn1cncn1)c1ccc(F)cc1F [FLUCONAZOLE] | 0.25 µg/mL (≈ 0.816 µM) | > 64 µg/mL | > 64 µg/mL | > 64 µg/mL | > 64 µg/mL | > 64 µg/mL | > 64 µg/mL | > 64 µg/mL | > 64 µg/mL | > 64 µg/mL | 4 µg/mL (≈ 13.1 µM) | > 64 µg/mL | > 64 µg/mL | > 64 µg/mL | 32 µg/mL (≈ 104 µM) | 64 µg/mL (≈ 209 µM) | 1 µg/mL (≈ 3.27 µM) | > 64 µg/mL | > 64 µg/mL | > 64 µg/mL | Activity (Candida parapsilosis [6]): 0%; Activity (Nakaseomyces glabratus [7]): 18.2%; Activity (Nakaseomyces glabratus [8]): 77.3%; Activity (Candida tropicalis [9]): 18.2%; Activity (Candida tropicalis [10]): 81.8%; MIC (Pichia kudriavzevii [3]): 32 µg/mL (≈ 104 µM); Activity (Pichia kudriavzevii [11]): 100%; Activity (Pichia kudriavzevii [12]): 0%; Activity (Candida parapsilosis [13]): 81.8%; Activity (Candida albicans [14]): 30.8%; Activity (Candida albicans [15]): 67.3%; MIC (Candida parapsilosis [5]): 0.5 µg/mL (≈ 1.63 µM); MIC50 (Candida parapsilosis [5]): 0.5 µg/mL (≈ 1.63 µM); MIC90 (Candida parapsilosis [5]): 16 µg/mL (≈ 52.2 µM) |
| Nc1nc(=O)[nH]cc1F [FLUCYTOSINE] | 0.06 µg/mL (≈ 0.465 µM) | 0.12 µg/mL (≈ 0.93 µM) | > 64 µg/mL | > 64 µg/mL | > 64 µg/mL | > 64 µg/mL | > 64 µg/mL | > 64 µg/mL | > 64 µg/mL | > 64 µg/mL | 0.06 µg/mL (≈ 0.465 µM) | 0.06 µg/mL (≈ 0.465 µM) | > 64 µg/mL | > 64 µg/mL | 16 µg/mL (≈ 124 µM) | 32 µg/mL (≈ 248 µM) | 0.12 µg/mL (≈ 0.93 µM) | 1 µg/mL (≈ 7.75 µM) | > 64 µg/mL | > 64 µg/mL | MIC (Candida tropicalis [1]): 0.06 µg/mL (≈ 0.465 µM); Activity (Candida parapsilosis [6]): 0%; Activity (Nakaseomyces glabratus [7]): 0%; Activity (Nakaseomyces glabratus [8]): 100%; Activity (Candida tropicalis [9]): 0%; Activity (Candida tropicalis [10]): 100%; Activity (Pichia kudriavzevii [11]): 30%; Activity (Pichia kudriavzevii [12]): 0%; Activity (Candida parapsilosis [13]): 100%; Activity (Candida albicans [14]): 0%; Activity (Candida albicans [15]): 100%; MIC50 (Candida parapsilosis [5]): 0.12 µg/mL (≈ 0.93 µM); MIC90 (Candida parapsilosis [5]): 0.12 µg/mL (≈ 0.93 µM) |
